Laboratory results reported in patent US20100234315A1, “COMPOSITIONS AND METHODS FOR TREATING PSYCHIATRIC AND […]” (priority 2009, published 2010).

Assays:
[1] = system: spontaneously hypertensive rats (SHR); experiment: Open-field locomotor activity (beam breaks, rearing) in SHR rats; type: in vivo, rat
Experimental: (§1) The effects of Protoveratrine B (PVB) on locomotor activity were determined using an open-field apparatus (High Density Cage Rack System; Kent Scientific Corporation). Adult spontaneously hypertensive rats (SHR) and adult Wistar Kyoto rats (WKY) were purchased from Charles River Laboratories. […] Sessions lasted 30-minutes and were separated by at least one day to diminish the likelihood of habituation to the apparatus. Three doses of PVB were investigated based upon the blood-pressure phase of the study: 0.01, 0.02 & 0.04 mg/kg.
(§2) The number of beam breaks was averaged across subjects and into 30-s bins. The upper panel represents the WKY control rats (N=8); the bottom panel represents the SHR rats (N=8). The different plots represent the baseline and different doses of PVB. Several details can be gleaned from the data. […] Second, activity levels in the SHRs appear to drop off precipitously throughout the session and eventually converge with the activity levels seen in the WKYs.
(§3) To better comprehend the effects of dose on locomotor activity, a dose-response graph was constructed for each rat strain. To construct these graphs, the number of beam breaks that occurred in the first thirty bins (first 15 min) of all rats within a strain was averaged and plotted as a function of dose. The resulting graphs, shown in FIG. 2, represent the effects of PVB on activity within the first 15 minutes post injection.
(§4) Another measure of activity level is rearing (measured by beam breaks of an infrared plane approximately 5″ above the floor of the chamber). Rearing data were analyzed in the same way as the horizontal beam breaks. The results are illustrated in FIG. 3. […] Unlike the horizontal activity, rearing activity in SHRs was decreased by the 0.01 mg/kg dose.

[2] = system: Wistar Kyoto rats (WKY); experiment: Open-field locomotor activity (beam breaks, rearing) in WKY rats; type: in vivo, rat
Experimental: as §1, §2, §3, §4

In the case of `CC[C@@H](C)C(=O)O[C@H]1[C@H](O)[C@H]2[C@@H](CN3C[C@@H](C)CC[C@H]3[C@@]2(C)O)[C@@H]2C[C@]34O[C@]5(O)[C@@H](OC(=O)[C@](C)(O)[C@@H](C)O)CC[C@@]3(C)[C@@H]5[C@@H](OC(C)=O)[C@@H](OC(C)=O)[C@H]4[C@@]21O` (stereo in doubt) [PVB, Protoveratrine B], the “activity level (beam breaks) vs baseline” value ([1]; 0.01 mg/kg i.p., FIG. 1) is reported as “did not affect activity”, the “rearing activity at lowest dose” value ([1]; 0.01 mg/kg i.p., FIG. 3) is reported as “decreased” and the “activity level, largest dose compared with lowest dose” value ([1]; 0.04 mg/kg vs 0.01 mg/kg i.p., FIG. 1) is reported as “greater decrease in activity”. For the same molecule, the “mean rearing, first 30 bins” value ([1]; 0.01-0.04 mg/kg i.p., FIG. 3) was “reduced rearing”, the “mean number of beam breaks, first thirty bins (first 15 min)” value ([1]; dose-response 0.01-0.04 mg/kg i.p., FIG. 2) was “reduced the mean number of beam breaks” and the “average activity level (number of beam breaks) as a function of time” value ([1]; i.p., 0.01-0.04 mg/kg, first half of 30-min session, FIG. 1) was “decreased activity levels”. For the same molecule, the “mean number of beam breaks, first 15 min, lowest dose” value ([1]; lowest dose (0.01 mg/kg) i.p., FIG. 2) was “no activity-decreasing effect”, the “relative potency between strains” value ([2]; WKY vs SHR, from dose-response functions, FIG. 2) was “slightly more potent in WKY than in SHR rats” and the “mean number of beam breaks, first 15 min, largest dose, WKY compared with SHR” value ([2]; WKY vs SHR, largest dose (0.04 mg/kg) i.p., FIG. 2) was “greater reduction in activity levels”. The “activity level (beam breaks) vs baseline” value ([2]; WKY, 0.01 mg/kg i.p., FIG. 1) was “reduced activity from baseline”, the “activity level, largest dose compared with lowest dose” value ([2]; WKY, 0.04 mg/kg vs 0.01 mg/kg i.p., FIG. 1) was “greater decrease in activity” and the “mean rearing, first 30 bins” value ([2]; WKY, 0.01-0.04 mg/kg i.p., FIG. 3) was “reduced rearing”. For the same molecule, the “mean number of beam breaks, first thirty bins (first 15 min)” value ([2]; WKY, dose-response 0.01-0.04 mg/kg i.p., FIG. 2) was “reduced the mean number of beam breaks”, the “average activity level (number of beam breaks) as a function of time” value ([2]; WKY, i.p., 0.01-0.04 mg/kg, first half of 30-min session, FIG. 1) was “decreased activity levels” and the “mean number of beam breaks, first 15 min, lowest dose” value ([2]; WKY, lowest dose (0.01 mg/kg) i.p., FIG. 2) was “affected by the lowest dose”.
